Data as given in patent publication US20240132478A1, “COCRYSTAL” (Syndesi Therapeutics SA, priority 2020, published 2024).
“Also recorded” adds a separate entry of the source. Where two headings read alike, the source gives them in different places.

How the values were obtained:
Assay type in all cases: physicochemical
[1] = Differential Scanning Calorimetry (DSC); details: * = multiple thermal events
Protocol: TA Instruments Q2000: DSC data were collected on a TA Instruments Q2000 equipped with a 50 position auto sampler. Typically, 0.5 3 mg of each sample, in a pin-holed aluminium pan, was heated at 10° C./min from 25° C. to 235° C. A purge of dry nitrogen at 50 mlmL/min was maintained over the sample. The instrument control software was Advantage for Q Series and Thermal Advantage and the data were analysed using Universal Analysis or TRIOS.
TA Instruments Discovery DSC: DSC data were also collected on a TA Instruments Discovery DSC equipped with a 50 position auto-sampler. Typically, 0.5 3 mg of each sample, in a pin-holed aluminium pan, was heated at 10° C./min from 25° C. to 235° C. A purge of dry nitrogen at 50 mlmL/min was maintained over the sample. The instrument control software was TRIOS and the data were analysed using TRIOS or Universal Analysis.

[2] = Solubility assessment in solvents (visual); details: for solubility: read-out: Observations from solubility assessment
Protocol: API (25 mg) was dispensed to a PLC vial with a magnetic stirrer. At room temperature an aliquot of solvent was added (5 vol.=125 μL) and stirred at 25° C. for at least 5 minutes. A visual assessment was made. Solutions were held at 25° C. and suspensions were placed at 50° C. with stirring for at least 5 minutes. A visual assessment was made and if a suspension was observed, further aliquots of solvent were added at 25° C. and the above steps repeated until a maximum of 50 volumes were added (Table 7).

[3] = Storage stability at elevated temperature and humidity (XRPD and HPLC purity after storage)
[4] = as above; remark: listed apart in the source
Protocol: Bruker AXS D8 Advance: XRPD diffractograms were collected on a Bruker D8 diffractometer using Cu Kα radiation (40 kV, 40 mA) and a θ-2θ goniometer fitted with a Ge monochromator. The incident beam passes through a 2.0 mm divergence slit followed by a 0.2 mm anti-scatter slit and knife edge. The diffracted beam passes through an 8.0 mm receiving slit with 2.5° Soller slits followed by the Lynxeye Detector. The software used for data collection and analysis was Diffrac Plus XRD Commander and Diffrac Plus EVA respectively. Samples were run under ambient conditions as flat plate specimens using powder as received. The sample was prepared on a polished, zero-background (510) silicon wafer by gently pressing onto the flat surface or packed into a cut cavity. The sample was rotated in its own plane. The details of the data collection method are: • Angular range: 2 to 42° 2θ • Step size: 0.05° 2θ • Collection time: 0.5 s/step (total collection time: 6.40 min)
Purity analysis was performed on an Agilent Ip 100/Infinity 111260 series system equipped with a diode array detector and using OpenLAB software. The full method details are provided below:
The three potential cocrystals were characterised using DSC, 1H NMR, TGA and by evaluating their stability with XRPD after 7 or 8 days of being stored at 40° C./75% RH. All three cocrystals were unchanged by XRPD after storage at 40° C./75% RH and none had significant amounts of solvent present (Table 28). The 4 HBA cocrystal appeared to have a similar melt to the starting material (ca. 85° C.). […] All initially appeared to have a 1:1 stoichiometry. […]

[5] = Gravimetric Vapour Sorption (GVS) moisture sorption isotherm
Protocol: Sorption isotherms were obtained using a SMS DVS Intrinsic moisture sorption analyser, controlled by DVS Intrinsic Control software. The sample temperature was maintained at 25° C. by the instrument controls. The humidity was controlled by mixing streams of dry and wet nitrogen, with a total flow rate of 200 ml/min. The relative humidity was measured by a calibrated Rotronic probe (dynamic range of 1.0-100% RH), located near the sample. The weight change, (mass relaxation) of the sample as a function of % RH was constantly monitored by a microbalance (accuracy ±0.005 mg). Typically, 5-30 mg of sample was placed in a tared mesh stainless steel basket under ambient conditions. The sample was loaded and unloaded at 40% RH and 25° C. (typical room conditions). A moisture sorption isotherm was performed as outlined below (2 scans per complete cycle). The standard isotherm was performed at 25° C. at 10% RH intervals over a 0-90% RH range. Typically, a double cycle (4 scans) was carried out. Data analysis was carried out within Microsoft Excel using the DVS Analysis Suite.
The sample was recovered after completion of the isotherm and re-analysed by XRPD.

Melting point (onset) [1]: 85.3 °C
solubility ([2]; 1,4-dioxane, 25 °C, organic solvent or mixture, thermodynamic from solid, 1,4-Dioxane, 5 vol, 25° C.): > 200 mg/mL
solubility ([2]; 2-methyl-1-propanol, 25 °C, organic solvent or mixture, thermodynamic from solid, 2-methyl-1-propanol, 5 vol, 25° C.): < 200 mg/mL
solubility ([2]; 2-methyl-1-propanol, 50 °C, organic solvent or mixture, thermodynamic from solid, 2-methyl-1-propanol, 5 vol, 50° C.): > 200 mg/mL
solubility ([2]; 2-propanol, 25 °C, organic solvent or mixture, thermodynamic from solid, 2-Propanol, 5 vol, 25° C.): < 200 mg/mL
solubility ([2]; 2-propanol, 50 °C, organic solvent or mixture, thermodynamic from solid, 2-Propanol, 5 vol, 50° C.): > 200 mg/mL
solubility ([2]; IPA:water (9:1 v/v), 25 °C, organic solvent or mixture, thermodynamic from solid, IPA:Water (9:1 v/v), 5 vol, 25° C.): < 200 mg/mL
solubility ([2]; IPA:water (9:1 v/v), 50 °C, organic solvent or mixture, thermodynamic from solid, IPA:Water (9:1 v/v), 5 vol, 50° C.): > 200 mg/mL
solubility ([2]; IPAC, 25 °C, organic solvent or mixture, thermodynamic from solid, IPAC, 5 vol, 25° C.): > 200 mg/mL
solubility ([2]; MEK, 25 °C, organic solvent or mixture, thermodynamic from solid, MEK, 5 vol, 25° C.): > 200 mg/mL
solubility ([2]; MIBK, 25 °C, organic solvent or mixture, thermodynamic from solid, MIBK, 5 vol, 25° C.): > 200 mg/mL
solubility ([2]; TBME, 25 °C, organic solvent or mixture, thermodynamic from solid, TBME, 5 vol, 25° C.): < 200 mg/mL
solubility ([2]; TBME, 25 °C, organic solvent or mixture, thermodynamic from solid, TBME, 10 vol, 25° C.): < 100 mg/mL
solubility ([2]; TBME, 50 °C, organic solvent or mixture, thermodynamic from solid, TBME, 5 vol, 50° C.): < 200 mg/mL
solubility ([2]; TBME, 50 °C, organic solvent or mixture, thermodynamic from solid, TBME, 10 vol, 50° C.): > 100 mg/mL
solubility ([2]; acetone, 25 °C, organic solvent or mixture, thermodynamic from solid, Acetone, 5 vol, 25° C.): > 200 mg/mL
solubility ([2]; acetone:water (95:5 v/v), 25 °C, organic solvent or mixture, thermodynamic from solid, Acetone:water (95:5 v/v), 5 vol, 25° C.): < 200 mg/mL
solubility ([2]; acetone:water (95:5 v/v), 50 °C, organic solvent or mixture, thermodynamic from solid, Acetone:water (95:5 v/v), 5 vol, 50° C.): > 200 mg/mL
solubility ([2]; acetonitrile, 25 °C, organic solvent or mixture, thermodynamic from solid, Acetonitrile, 5 vol, 25° C.): > 200 mg/mL
solubility ([2]; diethyl ether, 25 °C, organic solvent or mixture, thermodynamic from solid, Diethyl ether, 5 vol, 25° C.): < 200 mg/mL
solubility ([2]; diethyl ether, 25 °C, organic solvent or mixture, thermodynamic from solid, Diethyl ether, 10 vol, 25° C.): < 100 mg/mL
solubility ([2]; diethyl ether, 25 °C, organic solvent or mixture, thermodynamic from solid, Diethyl ether, 50 vol, 25° C.): > 20 mg/mL
solubility ([2]; ethanol, 25 °C, organic solvent or mixture, thermodynamic from solid, Ethanol, 5 vol, 25° C.): < 200 mg/mL
solubility ([2]; ethanol, 50 °C, organic solvent or mixture, thermodynamic from solid, Ethanol, 5 vol, 50° C.): > 200 mg/mL
solubility ([2]; ethanol:water (9:1 v/v), 25 °C, organic solvent or mixture, thermodynamic from solid, Ethanol:Water (9:1 v/v), 5 vol, 25° C.): > 200 mg/mL
solubility ([2]; ethyl acetate, 25 °C, organic solvent or mixture, thermodynamic from solid, Ethyl acetate, 5 vol, 25° C.): > 200 mg/mL
Solubility in organic solvents ([2]; most of the organic solvents tested, water, diethyl ether and n-heptane are the exceptions): good solubility
solubility ([2]; n-heptane, 25 °C, organic solvent or mixture, thermodynamic from solid, n-heptane, 5 vol, 25° C.): < 200 mg/mL
solubility ([2]; n-heptane, 50 °C, organic solvent or mixture, thermodynamic from solid, n-heptane, 5 vol, 50° C.): < 200 mg/mL
solubility ([2]; n-heptane, 50 °C, organic solvent or mixture, thermodynamic from solid, n-heptane, 50 vol, 50° C.): < 20 mg/mL
solubility ([2]; nitromethane, 25 °C, organic solvent or mixture, thermodynamic from solid, Nitromethane, 5 vol, 25° C.): > 200 mg/mL
solubility ([2]; tetrahydrofuran, 25 °C, organic solvent or mixture, thermodynamic from solid, Tetrahydrofuran, 5 vol, 25° C.): > 200 mg/mL
solubility ([2]; toluene, 25 °C, organic solvent or mixture, thermodynamic from solid, Toluene, 5 vol, 25° C.): < 200 mg/mL
solubility ([2]; toluene, 50 °C, organic solvent or mixture, thermodynamic from solid, Toluene, 5 vol, 50° C.): > 200 mg/mL
solubility ([2]; water, 25 °C, water, thermodynamic from solid, Water, 5 vol, 25° C.): < 200 mg/mL
solubility ([2]; water, 25 °C, water, thermodynamic from solid, Water, 10 vol, 25° C.): < 100 mg/mL
solubility ([2]; water, 25 °C, water, thermodynamic from solid, Water, 50 vol, 25° C.): < 20 mg/mL
solubility ([2]; water, 50 °C, water, thermodynamic from solid, Water, 5 vol, 50° C.): < 200 mg/mL
solubility ([2]; water, 50 °C, water, thermodynamic from solid, Water, 10 vol, 50° C.): < 100 mg/mL
solubility ([2]; water, 50 °C, water, thermodynamic from solid, Water, 50 vol, 50° C.): < 20 mg/mL
XRPD after storage ([3]; 25° C./97% RH): XRPD - Unchanged
Purity after storage ([3]; 25° C./97% RH, 7 days): Purity - 7 days: 99.5%, 14 days: 99.5%
Purity after storage ([3]; 25° C./97% RH, 14 days): Purity - 7 days: 99.5%, 14 days: 99.5%
Stability after storage ([3]; 14 days at 25° C./75% RH): stable
Stability after storage ([3]; 14 days at 40° C./97% RH): stable
XRPD after storage ([4]; 40° C./75% RH): Unchanged
Stability at 25° C./97% RH and 40° C./75% RH ([4]; XRPD after storage): Stable,
Hygroscopicity ([5]; in words, by GVS): not hygroscopic
SMILES: O=C1C[C@H](c2cc(F)c(F)c(F)c2)CN1Cn1ncnc1Cl [API, (4R)-1-[(5-chloro-1H-1,2,4-triazol-1-yl)methyl]-4-(3,4,5-trifluorophenyl)pyrrolidin-2-one]
Purity after storage ([3]; 40° C./75% RH, 7 days): Purity - 7 days: 99.5%, 14 days: 99.5% XRPD -
Purity after storage ([3]; 40° C./75% RH, 14 days): Purity - 7 days: 99.5%, 14 days: 99.5% XRPD -
XRPD post-GVS ([5]; sample re-analysed by XRPD after isotherm): no form change observed; also recorded: Unchanged by XRPD post-GVS
